In patent publication US11414384B2, “P300/CBP hat inhibitors” (Constellation Pharmaceuticals, Inc., priority 2018, dated 2022):

molecular target: p300 HAT domain (residues 1287-1666) (Homo sapiens (Human), UniProt Q09472); test: p300 HAT SPA assay (scintillation proximity assay, acetylation of biotinylated H3(1-21) peptide); type: biochemical; conditions: p300 HAT domain; average of at least 2 replicate titrations; read-out: P300 HAT SPA IC50
Method in brief: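 Scintillation proximity readout of acetylated biotin-H3(1-21) captured on streptavidin plates after 1.5 hr at RT; enzyme was Ni2+/anion-exchange-purified HAT domain in 20 mM Hepes pH 7.5. Inhibitor IC50s calculated from the data.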

Chain of p300 HAT domain (residues 1287-1666) (Q09472 1287-1666): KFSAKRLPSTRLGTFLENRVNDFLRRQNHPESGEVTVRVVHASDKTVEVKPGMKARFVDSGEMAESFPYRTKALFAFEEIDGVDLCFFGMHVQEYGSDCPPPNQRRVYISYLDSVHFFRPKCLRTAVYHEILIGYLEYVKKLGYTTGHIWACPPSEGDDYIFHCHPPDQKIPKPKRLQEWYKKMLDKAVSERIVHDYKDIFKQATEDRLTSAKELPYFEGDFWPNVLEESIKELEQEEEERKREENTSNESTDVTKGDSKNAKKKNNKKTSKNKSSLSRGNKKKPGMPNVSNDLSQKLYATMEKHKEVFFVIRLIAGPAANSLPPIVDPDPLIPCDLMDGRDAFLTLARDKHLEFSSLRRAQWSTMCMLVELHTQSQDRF

| IC50 | Structure (SMILES) |
| --- | --- |
| 4.3 µM | Cn1cc(-c2ccc3c(C(=O)C(NCCc4ccc(C(=O)O)cc4)c4ccccc4)c[nH]c3c2)cn1 (single isomer, unassigned) [138 Isomer 2] |
| 8.29 µM | Cn1cc(-c2ccc3c(C(=O)C(NCCc4ccc(C(N)=O)cc4)c4ccccc4)c[nH]c3c2)cn1 (single isomer, unassigned) [139 Isomer 1] |
| 0.872 µM | CC(CNC(C(=O)c1c[nH]c2ccccc12)c1ccccc1)c1ccc(C(N)=O)cc1 (single isomer, unassigned) [141 Isomer 1] |
| > 5 µM | CC(CNC(C(=O)c1c[nH]c2ccccc12)c1ccccc1)c1ccc(C(N)=O)cc1 (single isomer, unassigned) [141 Isomer 2] |
| 3.27 µM | Cn1cc(-c2ccc3c(C(=O)C(NCCc4ccc(C(=O)O)cc4Cl)c4ccccc4)c[nH]c3c2)cn1 (single isomer, unassigned) [142 Isomer 1] |
| 9.95 µM | COc1cccc2c(C(=O)[C@@H](NCCc3ccc(S(N)(=O)=O)cc3)c3ccccc3)c[nH]c12 (single isomer, unassigned) [144 Isomer 1] |
| > 60 µM | COc1ccc(CCN[C@H](C(=O)c2c[nH]c3c(C(C)C)cccc23)c2ccccc2)cc1 (single isomer, unassigned) [145 Isomer 2] |
| > 30 µM | CNC(=O)c1cccc2c(C(=O)C(NCCc3ccc(Cl)cc3Cl)c3ccccc3)c[nH]c12 (single isomer, unassigned) [147 Isomer 1] |
| > 30 µM | CN(C)C(=O)c1cccc2c(C(=O)C(NCCc3ccc(Cl)cc3Cl)c3ccccc3)c[nH]c12 (single isomer, unassigned) [148 Isomer 1] |
| 11.6 µM | CN(C)CCNC(=O)c1cccc2c(C(=O)C(NCCc3ccc(Cl)cc3Cl)c3ccccc3)c[nH]c12 (single isomer, unassigned) [149 Isomer 2] |
| > 30 µM | COCCNC(=O)c1cccc2c(C(=O)C(NCCc3ccc(Cl)cc3Cl)c3ccccc3)c[nH]c12 (single isomer, unassigned) [150 Isomer 2] |
| 11.5 µM | CNC(=O)c1ccc2c(C(=O)C(NCCc3ccc(Cl)cc3Cl)c3ccccc3)c[nH]c2c1 (single isomer, unassigned) [151 Isomer 1] |
| > 30 µM | CN(C)C(=O)c1ccc2c(C(=O)C(NCCc3ccc(Cl)cc3Cl)c3ccccc3)c[nH]c2c1 (single isomer, unassigned) [152 Isomer 1] |
| 1.2 µM | N#Cc1ccc(CCNC(C(=O)c2c[nH]c3cc(C(=O)NCC(F)(F)F)ccc23)c2ccccc2)cc1 (single isomer, unassigned) [157 Isomer 1] |
| > 5 µM | CNC(=O)CCc1ccc2c(C(=O)C(NCCc3ccc(F)cc3)c3ccccc3)c[nH]c2c1 (single isomer, unassigned) [158 Isomer 2] |
| 25.2 µM | O=C(O)CCc1ccc2c(C(=O)C(NCCc3ccc(F)cc3)c3ccccc3)c[nH]c2c1 (single isomer, unassigned) [159 Isomer 1] |
| > 5 µM | N#Cc1ccc(CCNC(C(=O)c2c[nH]c3cc(CC(=O)O)ccc23)c2ccccc2)cc1 (single isomer, unassigned) [160 Isomer 1] |
| 4.01 µM | N#Cc1ccc(CCNC(C(=O)c2c[nH]c3cc(CC(=O)O)ccc23)c2ccccc2)cc1 (single isomer, unassigned) [160 Isomer 2] |
| 3.35 µM | CC(C)(O)CNC(=O)c1ccc2c(C(=O)C(NCCc3ccc(C#N)cc3)c3ccccc3)c[nH]c2c1 (single isomer, unassigned) [161 Isomer 1] |
| 4.86 µM | N#Cc1ccc(CCNC(C(=O)c2c[nH]c3cc(C(=O)NC4CN(CC(F)(F)F)C4)ccc23)c2ccccc2)cc1 (single isomer, unassigned) [162 Isomer 1] |
| 0.135 µM | N#Cc1ccc(CCNC(C(=O)c2c[nH]c3cc(C(=O)NC4CN(CC(F)(F)F)C4)ccc23)c2ccccc2)cc1 (single isomer, unassigned) [162 Isomer 2] |
| 2.84 µM | CCN1CC(NC(=O)c2ccc3c(C(=O)C(NCCc4ccc(C#N)cc4)c4ccccc4)c[nH]c3c2)C1 (single isomer, unassigned) [163 Isomer 1] |
| 4.33 µM | CCN(CC)C(=O)c1ccc2c(C(=O)C(NCCc3ccc(C#N)cc3)c3ccccc3)c[nH]c2c1 (single isomer, unassigned) [165 Isomer 1] |
| 2.36 µM | CCN(CC)C(=O)c1ccc2c(C(=O)C(NCCc3ccc(C#N)cc3)c3ccccc3)c[nH]c2c1 (single isomer, unassigned) [165 Isomer 2] |
| 0.123 µM | N#Cc1ccc(CCNC(C(=O)c2c[nH]c3cc(C(=O)NC4CS(=O)(=O)C4)ccc23)c2ccccc2)cc1 (single isomer, unassigned) [166 Isomer 1] |

| IC50 | Structure (SMILES) |
| --- | --- |
| 0.0232 µM | CC(C)NC(=O)c1ccc2c(C(=O)C(NCCc3ccc(C#N)cc3)c3ccccc3)c[nH]c2c1 (single isomer, unassigned) [167 Isomer 1] |
| 0.746 µM | CC(C)NC(=O)c1ccc2c(C(=O)C(NCCc3ccc(C#N)cc3)c3ccccc3)c[nH]c2c1 (single isomer, unassigned) [167 Isomer 2] |
| 4.12 µM | C[C@H](O)CNC(=O)c1ccc2c(C(=O)C(NCCc3ccc(C#N)cc3)c3ccccc3)c[nH]c2c1 (single isomer, unassigned) [168 Isomer 1] |
| 0.0531 µM | C[C@H](O)CNC(=O)c1ccc2c(C(=O)C(NCCc3ccc(C#N)cc3)c3ccccc3)c[nH]c2c1 (single isomer, unassigned) [168 Isomer 2] |
| 1.79 µM | C[C@H](NC(=O)c1ccc2c(C(=O)C(NCCc3ccc(C#N)cc3)c3ccccc3)c[nH]c2c1)C(F)(F)F (single isomer, unassigned) [169 Isomer 1] |
| 0.0871 µM | C[C@H](NC(=O)c1ccc2c(C(=O)C(NCCc3ccc(C#N)cc3)c3ccccc3)c[nH]c2c1)C(F)(F)F (single isomer, unassigned) [169 Isomer 2] |
| 0.296 µM | C[C@@H](NC(=O)c1ccc2c(C(=O)C(NCCc3ccc(C#N)cc3)c3ccccc3)c[nH]c2c1)C(F)(F)F (single isomer, unassigned) [170 Isomer 1] |
| 4.11 µM | C[C@@H](NC(=O)c1ccc2c(C(=O)C(NCCc3ccc(C#N)cc3)c3ccccc3)c[nH]c2c1)C(F)(F)F (single isomer, unassigned) [170 Isomer 2] |
| > 5 µM | N#Cc1ccc(CCNC(C(=O)c2c[nH]c3cc(C(=O)N4CCCC4)ccc23)c2ccccc2)cc1 (single isomer, unassigned) [171 Isomer 1] |
| 0.932 µM | N#Cc1ccc(CCNC(C(=O)c2c[nH]c3cc(C(=O)N4CCCC4)ccc23)c2ccccc2)cc1 (single isomer, unassigned) [171 Isomer 2] |
| 4.24 µM | CN(C)C(=O)c1ccc2c(C(=O)C(NCCc3ccc(C#N)cc3)c3ccccc3)c[nH]c2c1 (single isomer, unassigned) [172 Isomer 1] |
| 0.657 µM | CN(C)C(=O)c1ccc2c(C(=O)C(NCCc3ccc(C#N)cc3)c3ccccc3)c[nH]c2c1 (single isomer, unassigned) [172 Isomer 2] |
| 1.7 µM | C[C@@H](O)CNC(=O)c1ccc2c(C(=O)C(NCCc3ccc(C#N)cc3)c3ccccc3)c[nH]c2c1 (single isomer, unassigned) [173 Isomer 1] |
| 0.0211 µM | C[C@@H](O)CNC(=O)c1ccc2c(C(=O)C(NCCc3ccc(C#N)cc3)c3ccccc3)c[nH]c2c1 (single isomer, unassigned) [173 Isomer 2] |
| 0.917 µM | CS(=O)(=O)CCCNC(=O)c1ccc2c(C(=O)C(NCCc3ccc(C#N)cc3)c3ccccc3)c[nH]c2c1 (single isomer, unassigned) [175 Isomer 1] |
| 0.0538 µM | N#Cc1ccc(CCNC(C(=O)c2c[nH]c3cc(C(=O)NCCN4CCCC4)ccc23)c2ccccc2)cc1 (single isomer, unassigned) [176 Isomer 1] |
| 1.11 µM | N#Cc1ccc(CCNC(C(=O)c2c[nH]c3cc(C(=O)NCCN4CCCC4)ccc23)c2ccccc2)cc1 (single isomer, unassigned) [176 Isomer 2] |
| > 5 µM | Cn1cnc(-c2ccc3c(C(=O)[C@@H](NCCc4ccc(C(N)=O)cc4)c4ccccc4)c[nH]c3c2)c1 (single isomer, unassigned) [177 Isomer 1] |
| > 5 µM | CN1CCC(c2ccc3c(C(=O)C(NCCc4ccc(C(N)=O)cc4)c4ccccc4)c[nH]c3c2)CC1 (single isomer, unassigned) [178 Isomer 1] |
| 2.07 µM | CN1CCC(c2ccc3c(C(=O)C(NCCc4ccc(C(N)=O)cc4)c4ccccc4)c[nH]c3c2)CC1 (single isomer, unassigned) [178 Isomer 2] |
| 0.248 µM | Cn1cc(-c2ccc3c(C(=O)C(NCCc4ccc(C(N)=O)cc4)c4ccccc4)cnn3c2)cn1 (single isomer, unassigned) [179 Isomer 2] |
| 4.33 µM | Cn1cc(-c2ccc3c(C(=O)C(NCCc4ccc(C(N)=O)cc4)c4ccccc4)c[nH]c3c2)nn1 (single isomer, unassigned) [180 Isomer 1] |
| > 5 µM | NC(=O)c1ccc(CCNC(C(=O)c2c[nH]c3cc(-n4ccnc4)ccc23)c2ccccc2)cc1 (single isomer, unassigned) [181 Isomer 2] |
| > 5 µM | NC(=O)c1ccc(CCNC(C(=O)c2c[nH]c3cc(-c4cnn(CCO)c4)ccc23)c2ccccc2)cc1 (single isomer, unassigned) [182 Isomer 1] |
| 0.514 µM | NC(=O)c1ccc(CCNC(C(=O)c2c[nH]c3cc(-c4cnn(CCO)c4)ccc23)c2ccccc2)cc1 (single isomer, unassigned) [182 Isomer 2] |

| Structure (SMILES) | IC50 |
| --- | --- |
| CC(Cc1ccc(C(N)=O)cc1)NC(C(=O)c1c[nH]c2ccccc12)c1ccccc1 (single isomer, unassigned) [140 Isomer 1] | > 5 µM |
| CC(Cc1ccc(C(N)=O)cc1)NC(C(=O)c1c[nH]c2ccccc12)c1ccccc1 (single isomer, unassigned) [140 Isomer 2] | 1.54 µM |
| CC(Cc1ccc(C(N)=O)cc1)NC(C(=O)c1c[nH]c2ccccc12)c1ccccc1 (single isomer, unassigned) [140 Isomer 3] | > 5 µM |
| CC(Cc1ccc(C(N)=O)cc1)NC(C(=O)c1c[nH]c2ccccc12)c1ccccc1 (single isomer, unassigned) [140 Isomer 4] | > 5 µM |
